# Calls of active or inactive are those of the source. The rule behind the calls is not given here.
# Legend:
# Mus musculus [1] = assay: Dose at which 50% convulsions occurred in mice (ip); format: functional
# Mus musculus [2] = assay: Dose required to induce hyperactivity in mice (ip); not active at a dose of 50.0 mg/kg; format: functional, organism-based; design: dose 50 mg/kg
# Mus musculus [3] = assay: Dose required to induce hypersensitivity in mice (ip); not active at a dose of 50.0 mg/kg; format: functional, organism-based; design: dose 50 mg/kg
# Mus musculus [4] = assay: Minimal dose required to cause aggressiveness in mice after ip administration; not active at a dose of 50.0 mg/kg; format: functional, organism-based; design: dose 50 mg/kg
# Mus musculus [5] = assay: Minimal dose required to cause piloerection in mice after ip administration; not active at a dose of 50.0 mg/kg; format: functional, organism-based; design: dose 50 mg/kg
# Mus musculus [6] = assay: Minimal dose required to induce hyperaesthesia in mice (ip); not active at a dose of 50.0 mg/kg; format: functional, organism-based; design: dose 50 mg/kg
# Mus musculus [7] = assay: Minimal dose required to induce in mice exophthalmus (ip); not active at a dose of 50.0 mg/kg; format: functional, organism-based; design: dose 50 mg/kg
# Mus musculus [8] = assay: Minimal dose required to induce in mice straub tail (ip); not active at a dose of 50.0 mg/kg; format: functional, organism-based; design: dose 50 mg/kg
# Mus musculus [9] = assay: Inhibition of reserpine (5 mg/kg i.p.) induced hypothermia in mice 2 hr after i.p. administration.; format: functional; conditions: ip
# Mus musculus [10] = assay: Lethal dose by i.p. administration.; format: functional; conditions: ip
# Mus musculus [11] = assay: Inhibition of reserpine (5 mg/kg i.p.) induced hypothermia in mice 4 hr after i.p. administration.; format: functional; conditions: ip
# Felis catus [12] = assay: Compound tested to induce facilitation of monosynaptic spikes in spinal ventral root by stimulation of the dorsal root (DR-VR) after iv administration in cats; 0.3-1.0; format: functional
# Mus musculus [13] = assay: Minimal dose required to cause piloerection in mice after ip administration; format: functional
# Mus musculus [14] = assay: Minimal dose required to induce hyperaesthesia in mice (ip); format: functional
# Mus musculus [15] = assay: Minimal dose required to induce in mice exophthalmus (ip); format: functional
# Mus musculus [16] = assay: Dose required to induce hyperactivity in mice (ip); not active at a dose of 25.0 mg/kg; format: functional, organism-based; design: dose 25 mg/kg
# Mus musculus [17] = assay: Dose required to induce hypersensitivity in mice (ip); format: functional
# Mus musculus [18] = assay: Minimal dose required to cause aggressiveness in mice after ip administration; not active at a dose of 25.0 mg/kg; format: functional, organism-based; design: dose 25 mg/kg
# Mus musculus [19] = assay: Minimal dose required to cause piloerection in mice after ip administration; not active at a dose of 25.0 mg/kg; format: functional, organism-based; design: dose 25 mg/kg
# Mus musculus [20] = assay: Minimal dose required to induce hyperaesthesia in mice (ip); not active at a dose of 25.0 mg/kg; format: functional, organism-based; design: dose 25 mg/kg
# Mus musculus [21] = assay: Minimal dose required to induce in mice exophthalmus (ip); not active at a dose of 25.0 mg/kg; format: functional, organism-based; design: dose 25 mg/kg
# Mus musculus [22] = assay: Minimal dose required to induce in mice straub tail (ip); not active at a dose of 25.0 mg/kg; format: functional, organism-based; design: dose 25 mg/kg
# Mus musculus [23] = assay: Dose required to induce hyperactivity in mice (ip); format: functional
# Mus musculus [24] = assay: Minimal dose required to induce in mice straub tail (ip); format: functional
# Mus musculus [25] = assay: Dose required to induce hypersensitivity in mice (ip); not active at 12.5 mg/kg; format: functional, organism-based; design: dose 12.5 mg/kg
# Mus musculus [26] = assay: Minimal dose required to cause aggressiveness in mice after ip administration; not active at 12.5 mg/kg; format: functional, organism-based; design: dose 12.5 mg/kg
# Mus musculus [27] = assay: Minimal dose required to cause piloerection in mice after ip; not active at 12.5 mg/kg; format: functional, organism-based; design: dose 12.5 mg/kg
# Mus musculus [28] = assay: Minimal dose required to induce in mice exophthalmus (ip); not active at 12.5 mg/kg at 12.5 mg/kg; format: functional, organism-based
# Mus musculus [29] = assay: Minimal dose required to induce in mice straub tail (ip); not active at 12.5 mg/kg at 12.5 mg/kg; format: functional, organism-based
# Mus musculus [30] = assay: Dose required to induce hyperactivity in mice (ip); not active at a dose of 12.5 mg/kg; format: functional, organism-based; design: dose 12.5 mg/kg
# Mus musculus [31] = assay: Minimal dose required to cause aggressiveness in mice after ip administration; not active at a dose of 12.5 mg/kg; format: functional, organism-based; design: dose 12.5 mg/kg
# Felis catus [32] = assay: Compound tested to induce facilitation of monosynaptic spikes in spinal ventral root by stimulation of the dorsal root (DR-VR) after iv administration in cats; range is 0.1-0.3; format: functional
# Mus musculus [33] = assay: Dose required to induce hyperactivity in mice (ip); weak at a dose of 150.0 mg/kg; format: functional, organism-based; design: dose 150 mg/kg
# Mus musculus [34] = assay: Minimal dose required to cause aggressiveness in mice after ip administration; not active at a dose of 150.0 mg/kg; format: functional, organism-based; design: dose 150 mg/kg
# Mus musculus [35] = assay: Minimal dose required to cause piloerection in mice after ip administration; not active at a dose of 150.0 mg/kg; format: functional, organism-based; design: dose 150 mg/kg
# Mus musculus [36] = assay: Minimal dose required to induce hyperaesthesia in mice (ip); not active at a dose of 150.0 mg/kg; format: functional, organism-based; design: dose 150 mg/kg
# Mus musculus [37] = assay: Minimal dose required to induce in mice exophthalmus (ip); not active at a dose of 150.0 mg/kg; format: functional, organism-based; design: dose 150 mg/kg
# Mus musculus [38] = assay: Minimal dose required to induce in mice straub tail (ip); not active at a dose of 150.0 mg/kg; format: functional, organism-based; design: dose 150 mg/kg
Compound,CD50 (Mus musculus [1]) [mg/kg],ED50 (Mus musculus [9]) [mg/kg],LD50 (Mus musculus [10]) [mg/kg],ED50 (Mus musculus [11]) [mg/kg],MD (Mus musculus [13]) [mg/kg],MD (Mus musculus [14]) [mg/kg],MD (Mus musculus [15]) [mg/kg],ED50 (Mus musculus [17]) [mg/kg],also measured
OC1(c2cccnc2)Cc2ccccc2C2=NCCN21 (configuration not stated),75,7,68.8,> 25.6,–,–,–,–,ED50 (Mus musculus [2]): inactive; ED50 (Mus musculus [3]): inactive; MD (Mus musculus [4]): inactive; MD (Mus musculus [5]): inactive; MD (Mus musculus [6]): inactive; MD (Mus musculus [7]): inactive; MD (Mus musculus [8]): inactive
OC1(c2cccc(C(F)(F)F)c2)Cc2ccccc2C2=NCCN21 (configuration not stated),75,1.9,50,> 25.6,37.5,37.5,37.5,–,Activity (Felis catus [12]): 0.3 mg/kg; ED50 (Mus musculus [2]): inactive; ED50 (Mus musculus [3]): inactive; MD (Mus musculus [4]): inactive; MD (Mus musculus [8]): inactive
OC1(Cc2ccccc2)Cc2ccccc2C2=NCCN21 (configuration not stated),37.5,5.9,37.5,> 25.6,–,–,–,25,ED50 (Mus musculus [16]): inactive; MD (Mus musculus [18]): inactive; MD (Mus musculus [19]): inactive; MD (Mus musculus [20]): inactive; MD (Mus musculus [21]): inactive; MD (Mus musculus [22]): inactive
OC1(c2ccc(F)cc2)Cc2ccccc2C2=NCCN21 (configuration not stated),75,0.06,76.9,10,18.8,18.8,9.4,25,Activity (Felis catus [12]): 0.3 mg/kg; ED50 (Mus musculus [23]): 25 mg/kg; MD (Mus musculus [24]): 9.4 mg/kg
OC1(c2ccccc2)Cc2ccccc2C2=NCCN21 (configuration not stated),–,5,37.5,> 9.4,–,9.4,–,–,ED50 (Mus musculus [23]): 12.5 mg/kg; ED50 (Mus musculus [25]): inactive; MD (Mus musculus [26]): inactive; MD (Mus musculus [27]): inactive; MD (Mus musculus [28]): inactive; MD (Mus musculus [29]): inactive
OC1(c2ccc(Cl)cc2)c2ccccc2C2=NCCN21 (configuration not stated) [MAZINDOL],–,0.05,–,0.12,–,–,–,–,–
OC1(c2ccc3c(c2)OCO3)Cc2ccccc2C2=NCCN21 (configuration not stated),18.8,0.1,10.2,0.5,9.4,4.7,4.7,12.5,ED50 (Mus musculus [30]): inactive; MD (Mus musculus [31]): inactive; MD (Mus musculus [24]): 4.7 mg/kg
OC1(c2ccccc2F)Cc2ccccc2C2=NCCN21 (configuration not stated),–,5.1,35.5,> 11.5,–,–,–,–,–
OC1(c2ccc(Cl)c(Cl)c2)Cc2ccccc2C2=NCCN21 (configuration not stated),–,1.6,150,> 25.6,–,–,–,150,Activity (Felis catus [32]): 0.1 mg/kg; ED50 (Mus musculus [33]): Weak; MD (Mus musculus [34]): inactive; MD (Mus musculus [35]): inactive; MD (Mus musculus [36]): inactive; MD (Mus musculus [37]): inactive; MD (Mus musculus [38]): inactive
